Measurements taken from US8097733B2, “Pyrazole derivatives as 5-LO-inhibitors” (Pfizer Inc., priority 2007, dated 2012).

Assays:
recombinant human 5-LOX = biological target: T1, recombinant human 5-LOX (Homo sapiens, UniProt P09917); test: Fluorescence Intensity 5-LOX Enzyme Assay; type: biochemical; conditions: crude lysate of recombinant human 5-LOX; highest inhibitor concentration tested typically 25 μM
T1 sequence (P09917 1-674): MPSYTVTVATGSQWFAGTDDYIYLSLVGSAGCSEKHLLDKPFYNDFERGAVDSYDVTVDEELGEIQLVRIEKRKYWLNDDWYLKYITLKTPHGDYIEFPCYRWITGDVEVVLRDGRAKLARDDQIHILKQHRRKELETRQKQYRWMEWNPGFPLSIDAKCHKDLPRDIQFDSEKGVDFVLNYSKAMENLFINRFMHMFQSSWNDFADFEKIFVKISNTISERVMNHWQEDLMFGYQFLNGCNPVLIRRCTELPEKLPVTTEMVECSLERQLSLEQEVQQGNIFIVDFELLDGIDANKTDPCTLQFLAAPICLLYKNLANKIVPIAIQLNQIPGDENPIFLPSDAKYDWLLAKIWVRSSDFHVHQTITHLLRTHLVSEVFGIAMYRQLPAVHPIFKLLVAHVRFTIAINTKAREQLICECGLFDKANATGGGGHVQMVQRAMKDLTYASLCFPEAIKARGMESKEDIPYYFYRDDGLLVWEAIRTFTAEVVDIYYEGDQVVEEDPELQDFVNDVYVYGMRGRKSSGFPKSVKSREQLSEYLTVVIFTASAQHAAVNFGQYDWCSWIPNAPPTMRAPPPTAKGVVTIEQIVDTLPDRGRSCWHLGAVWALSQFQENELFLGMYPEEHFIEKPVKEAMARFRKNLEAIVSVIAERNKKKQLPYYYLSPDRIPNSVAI
Excerpt: Bio Data Assays for Allergic and Non Allergic Airways Diseases Fluorescence Intensity 5-LOX Enzyme Assay
The enzyme assay is based on the oxidation of the non-fluorescent compound 2′7′-dichlorodihydrofluorescein diacetate (H2DCFDA) to the fluorescent 2′,7′-dichlorofluorescein by 5-LOX in an arachidonic acid-dependent reaction. Ester cleavage of the acetate groups of the substrate H2DCFDA must occur prior to oxidation. This is achieved through use of a crude cell lysate preparation of recombinant human 5-LOX. The enzyme assay ([…]) contained 50 mM Tris (pH 7.5), 2 mM CaCl2, 2 mM EDTA, 3 μM arachidonic acid (Nu-Chek Prep; #S-1133), 10 μM ATP, 10 μM H2DCFDA (Invitrogen; #D399), inhibitor (varying concentration) and recombinant human 5-LOX enzyme (1.25 μL crude lysate per well).
Inhibitors (dissolved in DMSO) were plated into a 384-well assay plate (Corning #3654) at 1 μL followed by a 20 μL addition of a solution containing 5-LO enzyme and H2DCFDA. Enzyme and H2DCFDA were pre-incubated for 5 min to allow time for acetate group cleavage of the dye prior to addition to the assay plate. After a 10 min pre-incubation of inhibitor and enzyme/dye mix, the assay was initiated by the addition of a substrate solution containing arachidonic acid and ATP. The enzymatic reaction was run for 20 min at room temperature and terminated by the addition of 40 μL of acetonitrile. Assay plates were read in a plate reader using standard wavelengths for fluorescein. IC50s of inhibitors were calculated using a 4-parameter fit using 7 inhibitor concentrations in duplicate with 3-fold serial dilutions. Controls on each plate included no inhibitor (zero percent effect) and 25 μM C J-13610 (one hundred percent effect). The highest inhibitor concentration tested was typically 25 μM. The final DMSO concentration in the assay was 2.5%.

[1] = tested on: human whole blood (leukotriene and prostaglandin levels); test: Eicosanoid production from human whole blood; type: cell-based; conditions: human whole blood stimulated with calcium ionophore A23187 and arachidonic acid; ELISA
Protocol: Human whole blood is collected in 10 ml heparin tubes (Vacutainer, Becton Dickenson). Collected blood is pooled and 80 μL is dispensed into each well of 384 well polypropylene plates. A PlateMate is used to add 2 μL of compound solution in DMSO to the 80 μL of blood in the polypropylene plates. The plate, with blood and compound added, is incubated at room temperature for 10 minutes. 2 μL of a calcimycin (800 ng/ml) (A23187 C-7522, Sigma) and arachidonic acid (30 μM) (NU-Chek PREP, INC. S-1133) solution in 60% ethanol is then added to the blood using a Micromultidrop. The plates are then incubated at 37° C. in a shallow water bath for 15 minutes. Plates are then spun at 800 g for 10 minutes at 4° C. Supernatant is removed and assayed by Elisa (Caymen Chemical).
Eicosanoid Production from Human Whole Blood:
Human whole blood was collected from healthy or asthmatic human donors in 10 ml heparinized tubes (Vacutainer tubes; Becton Dickenson, Franklin Lakes, N.J.). Collected blood was pooled and 80 μL was dispensed into each well of 384 well polypropylene plates using a Multi-prop™ 384-well dispenser (Titertek, Huntsville, Ala.). Varying concentrations of compounds were dissolved in DMSO then 2 μL/well was added to the blood using a PlateMate Plus™ automated pipetting station (Matrix Technologies, Hudson, N.H.). The compounds were preincubated with the blood at room temperature for 10 minutes followed by stimulation with 40 μM calcium ionophore (A23187, Sigma Chemical Co, St. Louis, Mo., Cat. # C-7522) and 30 μM arachidonic acid (S-1133, NU-Chek PREP, Inc., Elysian, MN, Cat. # S-1133) dissolved in 60% ethanol. After 15 min incubation at 37° C. in a shallow water bath, the blood was centrifuged at 8009 for 10 minutes at 4° C., the supernatants collected, and leukotriene and prostaglandin levels measured by ELISA according to the manufacturer's directions (Cayman Chemical Company, Ann Arbor, Mich.). The assay was performed at a final concentration of 2.5% DMSO.

[2] = tested on: eicosanoid production in the rat air pouch; test: Carrageenan-induced eicosanoid production in the rat air pouch; type: in vivo; conditions: po, male Lewis rats, 3 mpk by gavage 1 hour prior to carrageenan
Protocol: Carrageenan-Induced Eicosanoid Production in the Rat Air Pouch:
Male Lewis rats (175-200 g), Charles River Laboratories, Wilmington, Mass.) were used in the study. Air pouches were produced by subcutaneous injection of 20 ml of sterile air into the intrascapular area of the back. Pouches were allowed to develop for 1 day. Animals (6 per group) were fasted with free access to water for 16 to 24 hours prior to drug administration. Drugs or vehicle were administered by gavage 1 hour prior to injection of 2 ml of a 1% suspension of carrageenan (FMC BioPolymer, Philadelphia, Pa., Cat. # GP209-NF) dissolved in saline into the pouch. At 3 hours post-carrageenan injection, 1 ml of 50 μg/ml calcium ionophore in saline (A23187, Sigma Chemical Co, St. Louis, M, Cat. #C-7522) was injected into the pouch and the pouch fluid collected 10 minutes later by lavage. The fluid was centrifuged at 3500 rpm for 10 minutes at 4° C., and the supernatants were collected for analysis. Leukotriene and prostaglandin levels were quantitated by ELISA according to the manufacturer's directions (Cayman Chemical Company, Ann Arbor, Mi).

| Structure (SMILES) | IC50 (recombinant human 5-LOX) | IC50 [1] | inhibition at 3 mg/kg [2] |
| --- | --- | --- | --- |
| C[C@H]1C[C@@](C#N)(c2cc(F)cc(Sc3ccc(-c4ccnn4C)cc3)c2)CCO1 [27(2), (2S,4R)-4-(3-fluoro-5-(4-(1-methyl-1H-pyrazol-5-yl)phenylthio)phenyl)-2-methyl-tetrahydro-2H-pyran-4-carbonitrile] | 331 nM | 123 nM | 100% |
| Cn1nccc1-c1ccc([S+]([O-])c2cccc(C3(C(N)=O)CCOCC3)c2)cc1 (stereo not shown) [Example 50, 4-(3-{[4-(1-methyl-1H-pyrazol-5-yl)phenyl]sulfinyl}phenyl)tetrahydro-2H-pyran-4-carboxamide] | ≥ 25000 nM |  | 12% |
| CNC(=O)C1(c2cccc(Sc3ccc(C(=O)c4ccnn4C)c(OC)c3)c2)CCOCC1 [Example 64, 4-[3-({3-methoxy-4-[(1-methyl-1H-pyrazol-5-yl)carbonyl]phenyl}thio)phenyl]-N-methyltetrahydro-2H-pyran-4-carboxamide] | 470 nM | 8270 nM |  |
| Cn1nccc1C(=O)c1ccc(Sc2cccc(C3(C(N)=O)CCOCC3)c2)c(Cl)c1 [Example 68, 4-[3-({2-chloro-4-[(1-methyl-1H-pyrazol-5-yl)carbonyl]phenyl}thio)phenyl]tetrahydro-2H-pyran-4-carboxamide] | 803 nM | 2480 nM |  |
| Cn1nccc1C(=O)c1ccc(Sc2cccc(C3(C(N)=O)CCOCC3)c2)cn1 [Example 69, 4-[3-({6-[(1-methyl-1H-pyrazol-5-yl)carbonyl]pyridin-3-yl}thio)phenyl]tetrahydro-2H-pyran-4-carboxamide] | 1590 nM | 3350 nM |  |
| COc1cc(C(=O)c2ccnn2C)ccc1Sc1cccc(C2(C(N)=O)CCOCC2)c1 [Example 70, 4-[3-({2-methoxy-4-[(1-methyl-1H-pyrazol-5-yl)carbonyl]phenyl}thio)phenyl]tetrahydro-2H-pyran-4-carboxamide] | 740 nM | 3130 nM |  |
| COc1cc(Sc2cccc(C3(C(N)=O)CCOCC3)c2)ccc1C(=O)c1ccnn1C [Example 71, 4-[3-({3-methoxy-4-[(1-methyl-1H-pyrazol-5-yl)carbonyl]phenyl}thio)phenyl]tetrahydro-2H-pyran-4-carboxamide] | 430 nM | 1980 nM |  |
| C[C@@H]1C[C@](C#N)(c2cccc(Sc3ccc(-c4ccnn4C)cc3)c2)CCO1 [Example 82, (2R,4S)-2-methyl-4-(3-{[4-(1-methyl-1H-pyrazol-5-yl)phenyl]thio}phenyl)tetrahydro-2H-pyran-4-carbonitrile] | 1200 nM | 530 nM |  |
| CCNC(=O)C1(c2cccc(Sc3ccc(-c4ccnn4C)cc3)c2)CCOCC1 [Example 86, N-ethyl-4-(3-{[4-(1-methyl-1H-pyrazol-5-yl)phenyl]thio}phenyl)tetrahydro-2H-pyran-4-carboxamide] | 324 nM | 565 nM |  |
| Cn1nccc1-c1ccc(Sc2cccc(C3(C(N)=O)CCOCC3)c2Cl)cc1 [Example 87, 4-(2-chloro-3-{[4-(1-methyl-1H-pyrazol-5-yl)phenyl]thio}phenyl)tetrahydro-2H-pyran-4-carboxamide] | 1100 nM | 1010 nM |  |
| Cn1nccc1-c1ccc(Sc2cccc(C3(C(N)=O)CCOCC3)c2)c(C#N)c1 [Example 88, 4-(3-{[2-cyano-4-(1-methyl-1H-pyrazol-5-yl)phenyl]thio}phenyl)tetrahydro-2H-pyran-4-carboxamide] | 3220 nM | 1170 nM |  |

Compounds with a lower IC50 (recombinant human 5-LOX), results first:

| IC50 (recombinant human 5-LOX) | IC50 [1] | Structure (SMILES) | inhibition at 3 mg/kg [2] |
| --- | --- | --- | --- |
| 256 nM | 1260 nM | Cn1nccc1C(=O)c1cc(F)c(Sc2cccc(C3(C(N)=O)CCOCC3)c2)cc1F [Example 63, 4-[3-({2,5-difluoro-4-[(1-methyl-1H-pyrazol-5-yl)carbonyl]phenyl}thio)phenyl]tetrahydro-2H-pyran-4-carboxamide] |  |
| 81.3 nM | 1060 nM | CNC(=O)C1(c2cccc(Sc3ccc(C(=O)c4ccnn4C)c(Cl)c3)c2)CCOCC1 [Example 65, 4-[3-({3-chloro-4-[(1-methyl-1H-pyrazol-5-yl)carbonyl]phenyl}thio)phenyl]-N-methyltetrahydro-2H-pyran-4-carboxamide] |  |
| 209 nM | 1210 nM | Cn1nccc1C(=O)c1ccc(Sc2cccc(C3(C(N)=O)CCOCC3)c2)c(F)c1 [Example 67, 4-[3-({2-fluoro-4-[(1-methyl-1H-pyrazol-5-yl)carbonyl]phenyl}thio)phenyl]tetrahydro-2H-pyran-4-carboxamide] |  |
| 109 nM | 6360 nM | CNC(=O)C1(c2cccc(Sc3ccc(C(=O)c4ccnn4C)cc3)c2)CCOCC1 [Example 72, N-methyl-4-[3-({4-[(1-methyl-1H-pyrazol-5-yl)carbonyl]phenyl}thio)phenyl]tetrahydro-2H-pyran-4-carboxamide] |  |
| 13.4 nM | 672 nM | C[C@H]1C[C@@](C(N)=O)(c2cccc(Sc3ccc(-c4c(Br)cnn4C)cc3)c2F)CCO1 [Example 73, (2S,4R)-4-(3-{[4-(4-bromo-1-methyl-1H-pyrazol-5-yl)phenyl]thio}-2-fluorophenyl)-2-methyltetrahydro-2H-pyran-4-carboxamide] |  |
| 108 nM | 727 nM | Cn1ncc(Br)c1-c1ccc(Sc2cccc(C3(C(N)=O)CCOCC3)c2)cc1 [Example 76, 4-(3-{[4-(4-bromo-1-methyl-1H-pyrazol-5-yl)phenyl]thio}phenyl)tetrahydro-2H-pyran-4-carboxamide] |  |
| 153 nM | 1380 nM | Cn1ncc(Br)c1-c1ccc(Sc2cccc(C3(C(N)=O)CCOCC3)c2)cc1F [Example 78, 4-(3-{[4-(4-bromo-1-methyl-1H-pyrazol-5-yl)-3-fluorophenyl]thio}phenyl)tetrahydro-2H-pyran-4-carboxamide] |  |
